# Assay results taken from patent publication US20080026417A1, “ASSAYS FOR TRICHOMONAL AND OTHER HYDROLASES” (priority 2002, published 2008).
# Assays:
# trichomonal hydrolases [1] = assay: Experiment 13: hydrolysis of peptide substrates by trichomonal hydrolases at low pH, no vaginal fluid; assay type: biochemical, Trichomonas vaginalis; parameters: key: −: No red color produced; +: Clearly visible red color produced; ++: Moderately intense red color produced; +++: Very intense red color produced; conditions: without vaginal fluid; threonine buffer pH 2.4; 2 mM substrate solution; 10 min 25° C.; Fast Garnet
# Protocol: (§1) Forty μL of each substrate was pipetted into duplicate wells of a microtiter plate. The plate was covered with tape, placed into a 25° C. incubator, and allowed to warm. A diluted enzyme mixture was prepared by mixing one part (v/v) freshly-thawed trichomonal hydrolase solution to nine parts 2 mM L-cysteine solution. Forty μL of this mixture was added to one well of each pair of duplicate wells. For negative controls, 40 μL of 2 mM L-cysteine was added to the second well in each pair of duplicate wells. The plate was returned to the incubator and incubated for ten minutes. Forty μL of SDS/acetate solution was added to each well, followed by 40 μL of Fast Garnet solution. The intensity of color that developed in each well after five minutes was visually scored using the color scale presented in Table 13.1.
# trichomonal hydrolases [2] = assay: Experiment 13: hydrolysis of peptide substrates by trichomonal hydrolases at low pH in vaginal fluid supernatant; assay type: biochemical, Trichomonas vaginalis; parameters: key: −: No red color produced; +: Clearly visible red color produced; ++: Moderately intense red color produced; +++: Very intense red color produced; conditions: Fast Garnet
# Protocol: as §1
# Of the nine substrates hydrolyzed by trichomonal hydrolases to produce an intense pink color (scoring ++ or +++) in the absence of vaginal fluid supernatant, only four produced intense pink color when vaginal fluid supernatant was present.
# trichomonal hydrolases [3] = assay: Experiment 12: hydrolysis of ZRRR-MNA by trichomonal hydrolases in four buffers; assay type: biochemical, Trichomonas vaginalis; conditions: for Score: substrate ZRRR-MNA, Fast Red RL, 0-9 scale
# Protocol: Fifty μL of each buffer solution, at pH 2.0, 2.2, 2.4, or 2.6, was pipetted into separate wells of a microtiter plate. Twenty-five μL of 8 mM ZRRR-MNA and 25 μL of 10% trichomonal hydrolase solution were added to each well, and 20 μL were then removed from each well for measurement of final pH. Ten minutes after the mixtures were made, a Dacron swab was inserted into each well to absorb the liquid, then each swab was rubbed on a Fast Red RL film. The intensity of pink color that developed on each swab after five minutes was visually scored in 0.5 unit increments using the 0-9 color scale presented in Table 11.1 of the preceding example.
# trichomonal hydrolases [4] = assay: Experiment 1: hydrolysis of substrates by trichomonal hydrolases at pH 2.8-9.2, with or without normal vaginal fluid supernatant (NVS), absorbance 540 nm; assay type: biochemical, Trichomonas vaginalis; conditions: 540 nm
# Protocol: Assays without normal vaginal fluid supernatant present: Two sets of six wells in a microtiter plate were prepared, with each well containing 80 μL of one of the six 200 mM buffers, 10 μL of water and 10 μL of diluted trichomonal hydrolases. Ten μL of ZRR-MNA was added to each well in the first set of wells, and 10 μl of VLK-MNA was added to each well in the second set of wells. After fifteen minutes, 100 μl of indicator solution was added to each well. Because a high pH can reduce the intensity of color produced by the indicator solution, 50 μl of 100 mM acetic acid buffer, pH 3.7, was added to each well except the pH 2.8 wells (water was substituted for the acetic acid in those wells). After another fifteen minutes, the absorbance of the solutions in the wells was measured on a microtiter plate reader set on 540 nm wavelength.
# Assays with normal vaginal fluid supernatant (NVS) present: The procedure of the preceding paragraph was followed, except that 10 μL of diluted NVS was added to the wells in place of the 10 μL of water.
# [5] = tested on: non-trichomonal hydrolases present in vaginal fluid; assay: Experiment 8: polypeptide inhibition of hydrolases in whole vaginal fluid of uninfected women; assay type: biochemical, human; parameters: key: 0: Yellow; 1: Peach; 2: Orange; 3: Light to medium pink; 4: Dark pink or red; 5: Fuchsia; 6: Purple; conditions: ZRR-MNA, 10 mM polypeptide in substrate solution
# Protocol: (§2) The vaginal fluid was extracted from each swab by centrifugation, and then mixed to resuspend the particulate matter. For each donor, 2 μL of vaginal fluid was pipetted into each of ten microwells, then 2 μL of one of the ten substrate/buffer/polypeptide combinations was added to each well. Additionally, 2 μL of trichomonal hydrolases was mixed with 2 μL of each of the substrate/polypeptide combinations in set of ten wells. After fifteen minutes, 2 μL of indicator solution was added to each well.
# trichomonal hydrolases [6] = assay: Experiment 8: polypeptide inhibition of trichomonal hydrolases; assay type: biochemical, Trichomonas vaginalis; parameters: key: 0: Yellow; 1: Peach; 2: Orange; 3: Light to medium pink; 4: Dark pink or red; 5: Fuchsia; 6: Purple; conditions: 10 mM polypeptide in substrate solution
# Protocol: as §2
# [7] = tested on: non-trichomonal hydrolases present in whole vaginal fluid; assay: Experiment 9: dipeptide inhibition of hydrolases in whole vaginal fluid of uninfected women; assay type: biochemical, human; parameters: key: 0: Yellow; 1: Peach; 2: Orange; 3: Light to medium pink; 4: Dark pink or red; 5: Fuchsia; 6: Purple; conditions: ZRR-MNA, 10 mM dipeptide in substrate solution
# Protocol: (§3) For each specimen, the vaginal fluid was extracted from the swab by centrifugation, 2 μL of the vaginal fluid supernatant was removed from the microfuge tube, and the remainder of the fluid was mixed to resuspend the particulate matter. For each specimen, 2 μL of the thus reconstituted vaginal fluid was pipetted into each of four microwells, then 2 μL of one of the four substrate/dipeptide combinations was added to each well. The 2 μL of vaginal fluid supernatant from each specimen was mixed with 18 μL of trichomonal hydrolases, and 2 μL of this mixture was mixed with 2 μL of each of the substrate/dipeptide combinations in another set of four wells. After fifteen minutes, 2 μL of indicator solution was added to each well.
# trichomonal hydrolases [8] = assay: Experiment 9: dipeptide inhibition of trichomonal hydrolases mixed with vaginal fluid supernatant; assay type: biochemical, Trichomonas vaginalis; parameters: key: 0: Yellow; 1: Peach; 2: Orange; 3: Light to medium pink; 4: Dark pink or red; 5: Fuchsia; 6: Purple; conditions: trichomonal hydrolase added, ZRR-MNA, 10 mM dipeptide in substrate solution
# Protocol: as §3
# [9] = Donor A vaginal fluid supernatant
# [10] = Donor B vaginal fluid supernatant
# [11] = Donor C vaginal fluid supernatant
# [12] = Donor D vaginal fluid supernatant
Compound,Color Score (trichomonal hydrolases [1]),Color Score (trichomonal hydrolases [2]),Hydrolase activity color score with dipeptide ([7]; Donor A whole vaginal fluid),Hydrolase activity color score with dipeptide ([7]; Donor B whole vaginal fluid),Hydrolase activity color score with dipeptide ([7]; Donor C whole vaginal fluid),Hydrolase activity color score with dipeptide ([7]; Donor D whole vaginal fluid),Hydrolase activity color score with dipeptide (trichomonal hydrolases [8]; [9]),Hydrolase activity color score with dipeptide (trichomonal hydrolases [8]; [10]),Hydrolase activity color score with dipeptide (trichomonal hydrolases [8]; [11]),Hydrolase activity color score with dipeptide (trichomonal hydrolases [8]; [12]),also measured
COc1cc(NC(=O)[C@H](CCCNC(=N)N)NC(=O)[C@@H](NC(=O)[C@H](Cc2ccccc2)NC(=O)c2ccccc2)C(C)C)cc2ccccc12 [BZ-Phe-Val-Arg-MNA],++,+,,,,,,,,,
COc1cc(NC(=O)[C@H](CCCN=C(N)N)NC(=O)[C@H](CCCN=C(N)N)NC(=O)[C@H](C)NC(=O)OCc2ccccc2)cc2ccccc12 [CBZ-Ala-Arg-Arg-MNA],++,+,,,,,,,,,
COc1cc(NC(=O)[C@H](CCCNC(=N)N)NC(=O)[C@H](Cc2ccccc2)NC(=O)OCc2ccccc2)cc2ccccc12 [CBZ-Phe-Arg-MNA],++,+,,,,,,,,,
C[C@@H](O)[C@H](N)C(=O)O [L-threonine],,,,,,,,,,,Score (trichomonal hydrolases [3]; pH 2.0 Buffer (100 mM)): 3.5; Final pH (trichomonal hydrolases [3]; pH 2.0 Buffer after mixing with substrate and trichomonal hydrolase solution): pH 2.3; Score (trichomonal hydrolases [3]; pH 2.2 Buffer (100 mM)): 6.0; Final pH (trichomonal hydrolases [3]; pH 2.2 Buffer after mixing with substrate and trichomonal hydrolase solution): pH 2.4; Score (trichomonal hydrolases [3]; pH 2.4 Buffer (100 mM)): 6.5; Final pH (trichomonal hydrolases [3]; pH 2.4 Buffer after mixing with substrate and trichomonal hydrolase solution): pH 2.7; Score (trichomonal hydrolases [3]; pH 2.6 Buffer (100 mM)): 6.0; Final pH (trichomonal hydrolases [3]; pH 2.6 Buffer after mixing with substrate and trichomonal hydrolase solution): pH 2.9
"COc1cc(NC(=O)C(CCCCN)NC(=O)C(CC(C)C)NC(=O)C(N)C(C)C)cc2ccccc12 [VLK-MNA, D-Val-Leu-Lys-MNA]",++,+,,,,,,,,,"Absorbance Readings (trichomonal hydrolases [4]; with vaginal fluid supernatant, Acetate pH 5.1): 0.065; Absorbance Readings (trichomonal hydrolases [4]; with vaginal fluid supernatant, Borate pH 9.2): 0.062; Absorbance Readings (trichomonal hydrolases [4]; with vaginal fluid supernatant, Gly-gly pH 2.8): 0.094; Absorbance Readings (trichomonal hydrolases [4]; with vaginal fluid supernatant, HEPES pH 7.5): 0.063; Absorbance Readings (trichomonal hydrolases [4]; with vaginal fluid supernatant, MOPS pH 7.0): 0.066; Absorbance Readings (trichomonal hydrolases [4]; with vaginal fluid supernatant, TRIS pH 8.0): 0.073; Absorbance Readings (trichomonal hydrolases [4]; without vaginal fluid supernatant, Acetate pH 5.1): 1.622; Absorbance Readings (trichomonal hydrolases [4]; without vaginal fluid supernatant, Borate pH 9.2): 1.459; Absorbance Readings (trichomonal hydrolases [4]; without vaginal fluid supernatant, Gly-gly pH 2.8): 0.691; Absorbance Readings (trichomonal hydrolases [4]; without vaginal fluid supernatant, HEPES pH 7.5): 1.217; Absorbance Readings (trichomonal hydrolases [4]; without vaginal fluid supernatant, MOPS pH 7.0): 1.087; Absorbance Readings (trichomonal hydrolases [4]; without vaginal fluid supernatant, TRIS pH 8.0): 1.219"
"COc1cc(NC(=O)[C@H](CCCN=C(N)N)NC(=O)[C@H](CC(C)C)NC(=O)OCc2ccccc2)cc2ccccc12 [ZLR, CBZ-Leu-Arg-MNA]",+++,+++,,,,,,,,,
Arg-Lys-Asn-Val-Tyr (RKNVY; printed: Arg-Lys-Asn-Val-Tyr),,,,,,,,,,,"Hydrolase activity color score with polypeptide ([5]; pH 5, Donor A whole vaginal fluid): 0.5; Hydrolase activity color score with polypeptide ([5]; pH 5, Donor B whole vaginal fluid): 0; Hydrolase activity color score with polypeptide ([5]; pH 5, Donor C whole vaginal fluid): 0; Hydrolase activity color score with polypeptide ([5]; pH 5, Donor D whole vaginal fluid): 0; Hydrolase activity color score with polypeptide ([5]; pH 8, Donor A whole vaginal fluid): 0.5; Hydrolase activity color score with polypeptide ([5]; pH 8, Donor B whole vaginal fluid): 0.5; Hydrolase activity color score with polypeptide ([5]; pH 8, Donor C whole vaginal fluid): 1; Hydrolase activity color score with polypeptide ([5]; pH 8, Donor D whole vaginal fluid): 1; Hydrolase activity color score with polypeptide (trichomonal hydrolases [6]; pH 5, ZRR-MNA): 3; Hydrolase activity color score with polypeptide (trichomonal hydrolases [6]; pH 8, ZRR-MNA): 3"
Lysine-lysine,,,1,0,0,2.5,1,2,1,2,
Lysine-proline,,,0,0,0,0,1,1,0.5,2,
Lysine-valine,,,1,0,0,1.5,1,2,1,2,
